Tests used:
Type in all cases: cell-based, human
[1] = test system: Filaggrin (FLG) gene; test: Filaggrin (FLG) gene expression in NHEK by Taqman real-time PCR; settings: isolated compound added to NHEK culture media, concentration series (FIG. 5)
Experimental: (§1) (1) Normal human epidermal keratinocytes (NHEK) were cultured in 6-well culture media. The anaerobic-naturally fermented ginseng extract of the preparation example and an unfermented fresh ginseng extract were respectively added to the NHEK media and cultured. After harvesting the cells on the 4th day, separating RNA therefrom, and synthesizing cDNA through RT-PCR (reverse transcriptional polymerase chain reaction), the synthesized cDNA was measured with respect to an expression level of the Filaggrin gene through Taqman real-time PCR, and the results are shown in FIG. 4.
(§2) (2) The compound represented by Chemical Formula 1-1, which was separated from the anaerobic-naturally fermented ginseng extract of the preparation example, was added to an NHEK culture media and treated in the same manner as in (1), and then measured with respect to each gene expression level of Filaggrin, Occludin, and ATP-binding cassette sub-family A member 12 (ATP-binding cassette transporter 12), and the results are shown in FIGS. 5 to 7.

[2] = test system: ATP-binding cassette sub-family A member 12 (ABCA12) gene; test: ABCA12 gene expression in NHEK by Taqman real-time PCR; settings: isolated compound added to NHEK culture media, concentration series (FIG. 7)
Experimental: as §1, §2

[3] = test system: Occludin (OCLN) gene; test: Occludin (OCLN) gene expression in NHEK by Taqman real-time PCR; settings: isolated compound added to NHEK culture media, concentration series (FIG. 6)
Experimental: as §1, §2

CC(C)=CCC[C@](C)(O[C@@H]1O[C@H](CO[C@@H]2O[C@H](CO)[C@@H](O)[C@H](O)[C@H]2O)[C@@H](O)[C@H](O)[C@H]1O)[C@H]1CC[C@]2(C)[C@@H]1[C@H](O)C[C@@H]1[C@@]3(C)CC[C@H](O[C@@H]4O[C@H](CO)[C@@H](O)[C@H](O)[C@H]4O)C(C)(C)[C@@H]3CC[C@]12C [Chemical Formula 1-1]
gene expression level of Filaggrin (FLG) [1]: increased, as a concentration thereof was increased
gene expression level of ATP-binding cassette sub-family A member 12 (ABCA12) [2]: increased, as a concentration thereof was increased
gene expression level of Occludin (OCLN) [3]: increased, as a concentration thereof was increased

Source: patent US11925702B2, “Methods for extracting compound from ginseng, ginseng extract comprising the compound and composition for enhancing skin barrier comprising the same” (AMOREPACIFIC CORPORATION, priority 2022, dated 2024)
